{"source": "patent US11779572B1", "about": "“Methods of treating gastrointestinal stromal tumors” (Deciphera Pharmaceuticals, LLC, priority 2022, dated 2023)", "key": {"[1]": {"system": "patients with advanced GIST", "test": "Example 1 study: treatment-emergent adverse events, safety", "type": "in vivo, human", "description": "Patients were randomized 2:1 to either 150 mg of ripretinib or placebo once daily. The primary efficacy endpoint is progression-free survival (PFS) as determined by independent radiologic review using modified Response Evaluation Criteria in Solid Tumors (RECIST). Secondary endpoints as determined by independent radiologic review using modified RECIST include Objective Response Rate (ORR), Time to Tumor Progression (TTP) and Overall Survival (OS).\nThe safety of ripretinib and the impact of alopecia and palmar-plantar erythrodysesthesia (PPES) on patient-reported outcomes (PROs) of patients treated in the study described in Example 1 herein are described. […] When stratified by alopecia and PPES, patient reported assessments of function, overall health, and overall quality of life were maintained over time."}, "[2]": {"system": "patients with advanced GIST", "test": "Example 1 study: patient reported outcomes (EQ-5D-5L VAS, EORTC QLQ-C30)", "type": "in vivo, human", "conditions": "150 mg QD", "description": "Patient reported outcomes were assessed by EQ-5D-5L, which provides a visual analogue scale (VAS), and EORTC QLQ-C30, which provides physical function and role function scales. The EQ-5D-5L VAS (or EQ-VAS) records the respondent's overall current health on a vertical visual analogue scale and provides a quantitative measure of the patient's perception of overall health. These patient outcomes were reported across 28-day cycles of receiving 150 mg QD ripretinib or placebo.\nThe EORTC QLQ-C30 is an assessment of function and symptoms of therapy by cancer patient, and is not specific to any cancer. The EORTC QLQ-C30 is a 30-question plus one global health status, including 5 functional scales, 3 symptom scales and a global health status."}, "GIST": {"system": "GIST", "test": "Phase 1 study, ripretinib 150 mg QD, second-line through fourth-line plus GIST (Example 3): efficacy", "type": "in vivo, human", "conditions": "for Best response (confirmed only): CR / Best response (confirmed only): PR / Best response (confirmed only): Progressive disease / Best response (confirmed only): Stable disease / ORR, n (95% CI) / PFS, Median: 150 mg QD; for ORR, n (95% CI): CR+PR; for PFS, Median: investigator assessment", "description": "Efficacy and safety results from the escalation and expansion phases of a phase 1 study for patients with GIST treated at ripretinib 150 mg QD as the starting dose in 28-day cycles are presented. Local, investigator-assessed Response Evaluation Criteria in Solid Tumors (RECIST 1.1) response assessments were performed every 2 cycles, and patients in the expansion cohorts who progressed per RECIST 1.1 were allowed to dose escalate to 150 mg BID.\n142 patients with GIST in the escalation and expansion phases were treated at 150 mg QD dose. Number of patients by line of therapy were as follows: 31 2nd line, 28 3rd line, and 83≥4th line patients. 135 patients (95.1%) had KIT-mutant GIST, and 7 patients (4.9%) had PDGFRA-mutant GIST.\nFor example, the confirmed-only complete response (CR), partial response (PR), stable disease, and progressive disease are presented in Table 4. The objective response rate data in Table 4 relates to the proportion of patients with CR+PR. The median PFS data in Table 4 refers to progression-free survival per investigator assessment, by line of therapy.\nIn Table 4: ^a64 subjects escalated to 150 mg BID among patients with GIST in the 150 mg QD dose group. CI, confidence interval; CR, complete response; NE, not estimable; ORR, objective response rate; PFS, progression-free survival; PR, partial response; SD, […]. Local (investigator) response assessment."}, "[3]": {"test": "Coadministration with pantoprazole (proton-pump inhibitor)", "type": "in vivo, human", "conditions": "40 mg QD pantoprazole with 150 mg QD ripretinib", "description": "The effect of a proton-pump inhibitor on the exposure of ripretinib was evaluated."}, "Solubility in buffers": {"test": "Solubility in buffers", "type": "physicochemical"}, "CYP2D6": {"molecular_target": "CYP2D6 (Homo sapiens, UniProt P10635)", "sequence (P10635 whole entry)": "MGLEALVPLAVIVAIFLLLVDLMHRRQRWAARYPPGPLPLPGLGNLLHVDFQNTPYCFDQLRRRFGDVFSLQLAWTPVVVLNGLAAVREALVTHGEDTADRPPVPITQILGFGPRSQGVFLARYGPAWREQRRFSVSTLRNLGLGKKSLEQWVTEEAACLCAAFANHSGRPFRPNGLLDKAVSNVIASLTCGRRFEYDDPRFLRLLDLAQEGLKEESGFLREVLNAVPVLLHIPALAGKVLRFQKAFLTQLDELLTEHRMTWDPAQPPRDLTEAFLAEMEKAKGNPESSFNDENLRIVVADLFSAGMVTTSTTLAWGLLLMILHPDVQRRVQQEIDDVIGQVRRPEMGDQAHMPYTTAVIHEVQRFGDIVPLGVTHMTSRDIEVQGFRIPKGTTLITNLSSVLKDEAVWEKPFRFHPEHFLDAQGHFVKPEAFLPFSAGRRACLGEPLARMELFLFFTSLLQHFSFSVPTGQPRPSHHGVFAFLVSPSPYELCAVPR", "test": "Contribution of CYP enzymes to metabolism, in vitro data", "type": "in vitro ADME", "conditions": "base model, based on in vitro data", "source_text": "(§1) A PBPK model that included a mechanistic absorption model was developed."}, "[4]": {"test": "PBPK model of ripretinib and DP-5439 (Simcyp Simulator)", "source_text": "as §1\nThus, potential auto-induction and auto-inhibition effects were captured within the model.\nSingle dose (SD) PK data from participants with mild, moderate, and severe HI were used to refine and/or verify the PBPK model. […] Subsequently, the corresponding plasma concentration-time profiles in HI participants were likewise simulated and compared to the observed data.\nPredictions of plasma drug concentration-time profiles, clearance and DDIs were performed in the Simcyp Simulator using a population of virtual participants. The default healthy participant population was applied in all simulations involving healthy participants. […] With the exception of demographic data, all parameter values for the healthy participant population were the same as those used for the North European Caucasian population.\nFor simulations involving cancer participants, the North European Caucasian population was used to accommodate the wider age range observed in this population (19 to 87 years old; median 61 years). Weibull age distribution was applied with alpha and beta values of 5.47 and 66.5 years for male participants and 5.22 and 68.57 years for female participants. Age, height and weight distributions for the simulated virtual participant population were consistent with those from the first-in-human dose-escalation study in cancer patients.\nFor simulations involving participants with HI, 3 population models have been developed for the Simcyp Simulator and are based on the 3 Child-Pugh categories (CP-A, CP-B and CP-C). […] When reduced hepatic size was also taken into account, overall CYP3A4 expression in CP-A, CP-B and CP-C participants was reduced to 69%, 36% and 20%, respectively, to that of healthy participants."}}, "note": "Read-outs that look alike come from different tables or passages of the source.", "data": [{"smiles": "CCn1c(=O)c(-c2cc(NC(=O)Nc3ccccc3)c(F)cc2Br)cc2cnc(NC)cc21", "note": "[ripretinib]", "values": [{"measurement": "alopecia in females", "setting": "[1]; female, human, in vivo", "value": 56.8, "unit": "%"}, {"measurement": "Grade 3 or 4 TEAE abdominal pain", "setting": "[1]; human, in vivo", "value": 7, "unit": "%"}, {"measurement": "Grade 3 or 4 TEAE hypertension", "setting": "[1]; human, in vivo", "value": 7, "unit": "%"}, {"measurement": "TEAE alopecia (most common TEAE)", "setting": "[1]; human, in vivo", "value": 51.8, "unit": "%"}, {"measurement": "patients reporting PPES", "setting": "[1]; human, in vivo", "value": 21.2, "unit": "%"}, {"measurement": "patients with Grade 3 or 4 TEAEs", "setting": "[1]; human, in vivo", "value": "42 (49%)"}, {"measurement": "patients with a TEAE leading to dose interruption", "setting": "[1]; human, in vivo", "value": 23.5, "unit": "%"}, {"measurement": "patients with a TEAE leading to dose reduction", "setting": "[1]; human, in vivo", "value": 7.1, "unit": "%"}, {"measurement": "TEAEs during the crossover period", "setting": "[1]; in vivo", "value": "no safety concerns"}, {"measurement": "patients with grade 3 PPES", "setting": "[1]; in vivo", "value": "no patients"}, {"measurement": "serious adverse events of alopecia or PPES", "setting": "[1]; in vivo", "value": "no serious adverse events"}, {"measurement": "alopecia in males", "setting": "[1]; male, human, in vivo", "value": 43.2, "unit": "%"}, {"measurement": "patients with a TEAE leading to death", "setting": "[1]; ripretinib arm", "value": 5.9, "unit": "%"}, {"measurement": "EORTC QLQ-C30 physical function score, average improvement from baseline", "setting": "[2]; baseline to C2D1", "value": 1.6}, {"measurement": "EORTC QLQ-C30 role function score, average improvement from baseline", "setting": "[2]; baseline to C2D1", "value": 3.5}, {"measurement": "EQ-VAS score, average improvement from baseline", "setting": "[2]; baseline to Cycle 2, Day 1", "value": 3.7}, {"measurement": "EORTC QLQ-C30 Question C29 (overall health) score improvement", "setting": "[2]; scale 1 to 7", "value": 0.20}, {"measurement": "EORTC QLQ-C30 Question C30 (overall quality of life) score improvement", "setting": "[2]; scale 1 to 7", "value": 0.28}, {"measurement": "Best response (confirmed only): CR", "setting": "GIST; 2nd Line (n = 31)", "value": "0 n (%)"}, {"measurement": "Best response (confirmed only): PR", "setting": "GIST; 2nd Line (n = 31)", "value": "6 (19.4) n (%)"}, {"measurement": "Best response (confirmed only): Progressive disease", "setting": "GIST; 2nd Line (n = 31)", "value": "4 (12.9) n (%)"}, {"measurement": "Best response (confirmed only): Stable disease", "setting": "GIST; 2nd Line (n = 31)", "value": "21 (67.7) n (%)"}, {"measurement": "ORR, n (95% CI)", "setting": "GIST; 2nd Line (n = 31)", "value": "19.4 (7.5, 37.5)"}, {"measurement": "PFS, Median", "setting": "GIST; 2nd Line (n = 31)", "value": 46.4, "unit": "weeks"}, {"measurement": "Best response (confirmed only): CR", "setting": "GIST; 3rd Line (n = 28)", "value": "0 n (%)"}, {"measurement": "Best response (confirmed only): PR", "setting": "GIST; 3rd Line (n = 28)", "value": "4 (14.3) n (%)"}, {"measurement": "Best response (confirmed only): Progressive disease", "setting": "GIST; 3rd Line (n = 28)", "value": "6 (21.4) n (%)"}, {"measurement": "Best response (confirmed only): Stable disease", "setting": "GIST; 3rd Line (n = 28)", "value": "18 (64.3) n (%)"}, {"measurement": "ORR, n (95% CI)", "setting": "GIST; 3rd Line (n = 28)", "value": 14.3}, {"measurement": "PFS, Median", "setting": "GIST; 3rd Line (n = 28)", "value": 36.3, "unit": "weeks"}, {"measurement": "Best response (confirmed only): CR", "setting": "GIST; ≥4th Line (n = 83)", "value": "0 n (%)"}, {"measurement": "Best response (confirmed only): PR", "setting": "GIST; ≥4th Line (n = 83)", "value": "6 (7.2) n (%)"}, {"measurement": "Best response (confirmed only): Progressive disease", "setting": "GIST; ≥4th Line (n = 83)", "value": "22 (26.5) n (%)"}, {"measurement": "Best response (confirmed only): Stable disease", "setting": "GIST; ≥4th Line (n = 83)", "value": "49 (59.0) n (%)"}, {"measurement": "ORR, n (95% CI)", "setting": "GIST; ≥4th Line (n = 83)", "value": "7.2 (2.7, 15.1)"}, {"measurement": "PFS, Median", "setting": "GIST; ≥4th Line (n = 83)", "value": 23.9, "unit": "weeks"}, {"measurement": "PFS of second and third-line patients with Exons 9, 11, 13 or 17 KIT mutations", "setting": "GIST; FIG. 27", "value": "comparable PFS"}, {"measurement": "clinical benefit after dose escalation to 150 mg BID (PFS1 vs PFS2)", "setting": "GIST; regardless of line of therapy, FIG. 25", "value": "additional clinical benefit"}, {"measurement": "plasma exposure when ripretinib is coadministered with pantoprazole", "setting": "[3]", "value": "No clinically significant differences"}, {"measurement": "solubility", "setting": "Solubility in buffers", "value": "pH-dependent solubility"}, {"measurement": "solubility", "setting": "Solubility in buffers; fassgf or other biorelevant, intestinal buffer (pH 6.5), read-out: solubility", "value": 123, "unit": "µg/mL"}, {"measurement": "solubility", "setting": "Solubility in buffers; simulated gastric fluid, gastric buffer (pH 2.0), read-out: solubility", "value": 178, "unit": "µg/mL"}, {"measurement": "share of metabolism assigned to CYP2D6", "setting": "CYP2D6", "value": 18, "unit": "%"}, {"measurement": "all predictions relative to observed", "setting": "[4]; 150 mg QD dose", "value": "≤ 1.25", "unit": "fold"}, {"measurement": "predicted mean AUC0-12 and Cmax relative to observed values", "setting": "[4]; Day 1 and Day 15, except 250-mg QD dose", "value": "≤ 1.5", "unit": "fold"}]}]}
